# Compound: O=C(c1cc(Cc2n[nH]c(=O)c3ccccc23)ccc1F)N1CCN(C(=O)C2CC2)CC1 [Olaparib] + COc1cccc2cc(-c3nc([C@H]4CC[C@H](C(=O)O)CC4)n4ncnc(N)c34)[nH]c12 [OSI-027] (partner 0.5 µM)
# Experiment: relative viability (nuclei count vs DMSO), 5 days (fraction); higher = more cells survive
# Settings: first compound 0.08 µM
# How it was run: (§1)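 The day after seeding in 1536-well plates, lung cancer cell lines were treated by pin tool with a single drug, or with a fixed anchor-drug dose together with five library-drug doses (not always all listed) in √10 steps. After 5 days, a combined fix-and-stain solution (final 0.05% Triton X-100, 1% formaldehyde, 1 ug/ml Hoechst) was added. Nuclei counted on 4× images gave relative viability as treated counts over vehicle counts, reported as the median of duplicate plates.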
row,Cell Line,relative viability
1,201T,0.724
2,A-427,0.558
3,ABC-1,0.801
4,CAL-12T,1.05
5,COR-L23,0.723
6,COR-L 105,0.77
7,ChaGo-K-1,0.649
8,EKVX,0.79
9,EMC-BAC-2,0.41
10,EPLC-272H,0.334
11,H3255,0.591
12,HARA,0.68
13,HCC-15,0.83
14,NCI-H596,0.718
15,NCI-H727,0.91
16,NCI-H1563,0.75
17,NCI-H1623,0.511
18,NCI-H1792,0.759

# Same assay, conditions: first compound 0.253 µM
row,Cell Line,relative viability
1,201T,0.611
2,A-427,0.469
3,ABC-1,0.52
4,BEN,0.268
5,CAL-12T,0.568
6,COR-L23,0.635
7,COR-L 105,0.679
8,ChaGo-K-1,0.506
9,EKVX,0.626
10,EMC-BAC-2,0.364
11,EPLC-272H,0.286
12,H3255,0.56
13,HARA,0.446
14,HCC-15,0.652
15,NCI-H596,0.782
16,NCI-H727,0.619
17,NCI-H1563,0.745
18,NCI-H1623,0.457
19,NCI-H1792,0.652

# Same assay, conditions: first compound 2.53 µM
row,Cell Line,relative viability
1,201T,0.699
2,A-427,0.396
3,ABC-1,0.488
4,BEN,0.301
5,CAL-12T,0.602
6,COR-L23,0.712
7,COR-L 105,0.487
8,ChaGo-K-1,0.533
9,EKVX,0.61
10,EMC-BAC-2,0.357
11,EPLC-272H,0.31
12,H3255,0.764
13,HARA,0.47
14,HCC-15,0.6
15,NCI-H596,0.718
16,NCI-H727,0.546
17,NCI-H1563,0.806
18,NCI-H1623,0.474
19,NCI-H1792,0.712

# Same assay, conditions: first compound 8 µM
row,Cell Line,relative viability
1,201T,0.764
2,A-427,0.389
3,ABC-1,0.55
4,BEN,0.296
5,CAL-12T,0.627
6,COR-L23,0.424
7,COR-L 105,0.584
8,ChaGo-K-1,0.464
9,EKVX,0.765
10,EMC-BAC-2,0.358
11,EPLC-272H,0.299
12,H3255,0.548
13,HARA,0.438
14,HCC-15,0.638
15,NCI-H596,0.642
16,NCI-H727,0.471
17,NCI-H1563,0.753
18,NCI-H1623,0.42
19,NCI-H1792,0.669

# Compound: C[C@@H](Oc1cc(-c2cnn(C3CCNCC3)c2)cnc1N)c1c(Cl)ccc(F)c1Cl [Crizotinib] + Nc1nc2[nH]cc(CCc3ccc(C(=O)N[C@@H](CCC(=O)O)C(=O)O)cc3)c2c(=O)[nH]1 [Pemetrexed] (partner 0.2 µM)
# Experiment: as above
# Settings: first compound 0.01 µM
# How it was run: as §1
row,Cell Line,relative viability
1,201T,0.296
2,A-427,0.967
3,BEN,0.726
4,CAL-12T,1.09
5,COR-L23,0.19
6,COR-L 105,1.04
7,ChaGo-K-1,0.253
8,EKVX,0.362
9,EMC-BAC-2,0.442
10,EPLC-272H,0.298
11,H3255,0.556
12,HARA,0.222
13,HCC-15,0.234
14,NCI-H596,0.462
15,NCI-H1563,0.759
16,NCI-H1792,0.829

# Same assay, conditions: first compound 0.03162 µM
row,Cell Line,relative viability
1,201T,0.279
2,A-427,0.954
3,BEN,0.741
4,CAL-12T,1.09
5,COR-L23,0.189
6,COR-L 105,1.16
7,ChaGo-K-1,0.249
8,EKVX,0.414
9,EMC-BAC-2,0.419
10,EPLC-272H,0.355
11,H3255,0.553
12,HARA,0.242
13,HCC-15,0.222
14,NCI-H596,0.48
15,NCI-H1563,0.833
16,NCI-H1792,1.06

# Same assay, conditions: first compound 0.1 µM
row,Cell Line,relative viability
1,201T,0.32
2,A-427,0.957
3,BEN,0.739
4,CAL-12T,1.06
5,COR-L23,0.201
6,COR-L 105,1
7,ChaGo-K-1,0.253
8,EKVX,0.404
9,EMC-BAC-2,0.444
10,EPLC-272H,0.397
11,H3255,0.592
12,HARA,0.257
13,HCC-15,0.233
14,NCI-H596,0.509
15,NCI-H1563,0.757
16,NCI-H1792,0.847

# Same assay, conditions: first compound 0.3162 µM
row,Cell Line,relative viability
1,201T,0.324
2,BEN,0.596
3,CAL-12T,1.19
4,COR-L23,0.207
5,COR-L 105,1.24
6,ChaGo-K-1,0.241
7,EKVX,0.383
8,EPLC-272H,0.37
9,H3255,0.54
10,HARA,0.183
11,HCC-15,0.209
12,NCI-H596,0.458
13,NCI-H1563,0.735

# Same assay, conditions: first compound 1 µM
row,Cell Line,relative viability
1,201T,0.331
2,BEN,0.702
3,CAL-12T,1.02
4,COR-L23,0.199
5,COR-L 105,1.07
6,ChaGo-K-1,0.261
7,EKVX,0.327
8,EMC-BAC-2,0.448
9,EPLC-272H,0.402
10,H3255,0.557
11,HARA,0.236
12,HCC-15,0.213
13,NCI-H596,0.509
14,NCI-H1563,0.875
15,NCI-H1792,0.871

# Compound: C[C@@H](Oc1cc(-c2cnn(C3CCNCC3)c2)cnc1N)c1c(Cl)ccc(F)c1Cl [Crizotinib] + CC(=O)c1c(C)c2cnc(Nc3ccc(N4CCNCC4)cn3)nc2n(C2CCCC2)c1=O [Palbociclib] (partner 0.5 µM)
# Experiment: as above
# Settings: first compound 0.01 µM
# How it was run: as §1
row,Cell Line,relative viability
1,201T,0.336
2,A-427,0.486
3,ABC-1,0.811
4,BEN,0.528
5,CAL-12T,0.369
6,COR-L23,0.289
7,COR-L 105,0.4
8,ChaGo-K-1,0.917
9,EKVX,0.312
10,EMC-BAC-2,0.507
11,EPLC-272H,0.334
12,H3255,0.342
13,HARA,0.273
14,HCC-15,0.665
15,NCI-H727,0.703
16,NCI-H1792,0.588

# Same assay, conditions: first compound 0.03162 µM
row,Cell Line,relative viability
1,201T,0.375
2,A-427,0.53
3,ABC-1,0.838
4,BEN,0.504
5,CAL-12T,0.577
6,COR-L23,0.269
7,COR-L 105,0.427
8,ChaGo-K-1,0.92
9,EKVX,0.411
10,EMC-BAC-2,0.509
11,EPLC-272H,0.298
12,H3255,0.331
13,HARA,0.295
14,HCC-15,0.719
15,NCI-H727,0.621
16,NCI-H1792,0.692

# Same assay, conditions: first compound 0.1 µM
row,Cell Line,relative viability
1,201T,0.329
2,A-427,0.496
3,ABC-1,0.517
4,BEN,0.464
5,CAL-12T,0.341
6,COR-L23,0.298
7,COR-L 105,0.397
8,ChaGo-K-1,0.971
9,EKVX,0.38
10,EMC-BAC-2,0.519
11,EPLC-272H,0.31
12,H3255,0.327
13,HARA,0.239
14,HCC-15,0.7
15,NCI-H727,0.655
16,NCI-H1792,0.639

# Same assay, conditions: first compound 0.3162 µM
row,Cell Line,relative viability
1,201T,0.384
2,BEN,0.47
3,CAL-12T,0.295
4,COR-L23,0.256
5,COR-L 105,0.388
6,ChaGo-K-1,0.908
7,EKVX,0.392
8,H3255,0.28
9,HARA,0.249
10,HCC-15,0.655
11,NCI-H727,0.639

# Same assay, conditions: first compound 1 µM
row,Cell Line,relative viability
1,201T,0.344
2,A-427,0.558
3,ABC-1,0.711
4,BEN,0.489
5,CAL-12T,0.369
6,COR-L23,0.328
7,COR-L 105,0.409
8,ChaGo-K-1,0.98
9,EKVX,0.423
10,EMC-BAC-2,0.479
11,EPLC-272H,0.309
12,H3255,0.325
13,HARA,0.207
14,HCC-15,0.627
15,NCI-H727,0.595
16,NCI-H1792,0.68

# Compound: O=C(c1cc(Cc2n[nH]c(=O)c3ccccc23)ccc1F)N1CCN(C(=O)C2CC2)CC1 [Olaparib] + O=C(CCCCCCC(=O)Nc1ccccc1)NO [Vorinostat] (partner 1 µM)
# Experiment: as above
# Settings: first compound 0.08 µM
# How it was run: as §1
row,Cell Line,relative viability
1,201T,1.07
2,A-427,0.911
3,ABC-1,1.13
4,BEN,0.625
5,CAL-12T,1.15
6,COR-L23,0.508
7,COR-L 105,0.782
8,ChaGo-K-1,0.815
9,EKVX,0.667
10,EMC-BAC-2,0.584
11,EPLC-272H,0.513
12,H3255,0.859
13,HARA,0.45
14,HCC-15,0.956
15,IA-LM,1.15
16,NCI-H596,0.696
17,NCI-H727,1.19

# Same assay, conditions: first compound 0.253 µM
row,Cell Line,relative viability
1,201T,0.912
2,A-427,0.863
3,BEN,0.606
4,CAL-12T,0.663
5,COR-L23,0.43
6,COR-L 105,0.717
7,ChaGo-K-1,0.665
8,EKVX,0.679
9,EMC-BAC-2,0.405
10,EPLC-272H,0.386
11,H3255,0.722
12,HARA,0.472
13,HCC-15,0.819
14,IA-LM,0.921
15,NCI-H596,0.529
16,NCI-H727,1.08

# Same assay, conditions: first compound 2.53 µM
row,Cell Line,relative viability
1,201T,0.954
2,A-427,0.871
3,ABC-1,1.08
4,BEN,0.582
5,CAL-12T,0.917
6,COR-L23,0.228
7,COR-L 105,0.781
8,ChaGo-K-1,0.63
9,EKVX,0.776
10,EMC-BAC-2,0.703
11,EPLC-272H,0.472
12,H3255,0.904
13,HARA,0.553
14,HCC-15,0.83
15,IA-LM,0.9
16,NCI-H596,0.551
17,NCI-H727,0.983

# Same assay, conditions: first compound 8 µM
row,Cell Line,relative viability
1,201T,0.947
2,A-427,0.76
3,ABC-1,1.07
4,BEN,0.566
5,CAL-12T,0.687
6,COR-L23,0.239
7,COR-L 105,0.79
8,ChaGo-K-1,0.416
9,EKVX,0.646
10,EMC-BAC-2,0.446
11,EPLC-272H,0.4
12,H3255,0.757
13,HARA,0.507
14,HCC-15,0.687
15,IA-LM,0.817
16,NCI-H596,0.397
17,NCI-H727,0.981

# Source: the supplement of paper PMC10307832
